Measurements as given in ChEMBL document CHEMBL5724914, “Linking interpersonal differences in gut microbiota composition and drug biotransformation activity” (2024).

Key:
[1] = (§1) The drug is tested on Z-019 corresponding to rat gut metagenome with ENA study accession number: PRJEB37062 and ENA sample accession number: ERS12561818 for biotransformation under anaerobic condition. The drug concentrations were measured over 9 timepoints collected between 0 and 24 hours of incubation by liquid-chromatography-coupled mass spectrometry (LC–MS); conditions: 2 µM
[2] = as §1, with “Z-014” for “Z-019”, “ERS12561814” for “ERS12561818”; conditions: 2 µM
[3] = as §1, with “Z-012” for “Z-019”, “to” for “to rat gut”, “ERS12561812” for “ERS12561818”; conditions: 2 µM
[4] = as §1, with “Z-008” for “Z-019”, “to” for “to rat gut”, “ERS12561808” for “ERS12561818”; conditions: 2 µM
[5] = as §1, with “on Z-006” for “on Z-019”, “to mouse” for “to rat”, “number: ERS12561806” for “number: ERS12561818”; conditions: 2 µM
[6] = as §1, with “on Z-002” for “on Z-019”, “to rabbit” for “to rat”, “number: ERS12561802” for “number: ERS12561818”; conditions: 2 µM
[7] = as §1, with “on WLS-310” for “on Z-019”, “to human” for “to rat”, “number: ERS12561785” for “number: ERS12561818”; conditions: 2 µM
[8] = as §1, with “on WLS-170” for “on Z-019”, “to human” for “to rat”, “number: ERS12561762” for “number: ERS12561818”; conditions: 2 µM
[9] = as §1, with “on WLS-098” for “on Z-019”, “to human” for “to rat”, “number: ERS12561754” for “number: ERS12561818”; conditions: 2 µM
[10] = as §1, with “on WLS-052” for “on Z-019”, “to human” for “to rat”, “number: ERS12561747” for “number: ERS12561818”; conditions: 2 µM
[11] = as §1, with “on WLS-039” for “on Z-019”, “to human” for “to rat”, “number: ERS12561746” for “number: ERS12561818”; conditions: 2 µM
[12] = as §1, with “on WLS-010” for “on Z-019”, “to human” for “to rat”, “number: ERS12561743” for “number: ERS12561818”; conditions: 2 µM
[13] = human gut metagenome, 24 h, 2 µM
[14] = human gut metagenome, 24 h, 2 µM; remark: listed apart in the source
[15] = human gut metagenome, 24 h, 2 µM; remark: listed apart in the source
[16] = human gut metagenome, 24 h, 2 µM; remark: listed apart in the source
[17] = human gut metagenome, 24 h, 2 µM; remark: listed apart in the source
[18] = human gut metagenome, 24 h, 2 µM; remark: listed apart in the source
[19] = human gut metagenome, 24 h, 2 µM; remark: listed apart in the source
[20] = human gut metagenome, 24 h, 2 µM; remark: listed apart in the source
Also: call rule not given here.

COc1ccc(/C=C/C(=O)Nc2ccccc2C(=O)O)cc1OC
Bacterial Biotransformation [1]: Compound NOT metabolized
Bacterial Biotransformation [2]: Compound metabolized
Bacterial Biotransformation [3]: Compound NOT metabolized
Bacterial Biotransformation [4]: Compound NOT metabolized
Bacterial Biotransformation [5]: Compound NOT metabolized
Bacterial Biotransformation [6]: Compound metabolized
Bacterial Biotransformation [7]: Compound metabolized
Bacterial Biotransformation [8]: Compound NOT metabolized
Bacterial Biotransformation [9]: Compound metabolized
Bacterial Biotransformation [10]: Compound metabolized
Bacterial Biotransformation [11]: Compound metabolized
Bacterial Biotransformation [12]: Compound metabolized
Bacterial Biotransformation [13]: Compound NOT metabolized
Bacterial Biotransformation [14]: Compound NOT metabolized
Bacterial Biotransformation [15]: Compound NOT metabolized
Bacterial Biotransformation [16]: Compound metabolized
Bacterial Biotransformation [17]: Compound NOT metabolized
Bacterial Biotransformation [18]: Compound NOT metabolized

CC(C)C[C@H]1C(=O)N2CCC[C@H]2[C@]2(O)O[C@](NC(=O)[C@@H]3C=C4c5cccc6[nH]c(Br)c(c56)C[C@H]4N(C)C3)(C(C)C)C(=O)N12.CS(=O)(=O)O [BROMOCRIPTINE MESYLATE]
Bacterial Biotransformation [1]: Compound metabolized
Bacterial Biotransformation [2]: Compound metabolized
Bacterial Biotransformation [3]: Compound metabolized
Bacterial Biotransformation [4]: Compound metabolized
Bacterial Biotransformation [5]: Compound metabolized
Bacterial Biotransformation [6]: Compound metabolized
Bacterial Biotransformation [7]: Compound metabolized
Bacterial Biotransformation [8]: Compound metabolized
Bacterial Biotransformation [9]: Compound metabolized
Bacterial Biotransformation [10]: Compound metabolized
Bacterial Biotransformation [11]: Compound metabolized
Bacterial Biotransformation [12]: Compound metabolized
Bacterial Biotransformation [13]: Compound metabolized
Bacterial Biotransformation [14]: Compound metabolized
Bacterial Biotransformation [15]: Compound metabolized
Bacterial Biotransformation [16]: Compound metabolized
Bacterial Biotransformation [17]: Compound NOT metabolized
Bacterial Biotransformation [18]: Compound NOT metabolized
Bacterial Biotransformation [19]: Compound metabolized

CC(NC(C)(C)C)C(=O)c1cccc(Cl)c1 (configuration not stated) [BUPROPION]
Bacterial Biotransformation [1]: Compound NOT metabolized
Bacterial Biotransformation [2]: Compound NOT metabolized
Bacterial Biotransformation [3]: Compound NOT metabolized
Bacterial Biotransformation [4]: Compound NOT metabolized
Bacterial Biotransformation [5]: Compound NOT metabolized
Bacterial Biotransformation [6]: Compound NOT metabolized
Bacterial Biotransformation [7]: Compound NOT metabolized
Bacterial Biotransformation [8]: Compound NOT metabolized
Bacterial Biotransformation [9]: Compound NOT metabolized
Bacterial Biotransformation [10]: Compound NOT metabolized
Bacterial Biotransformation [11]: Compound NOT metabolized
Bacterial Biotransformation [13]: Compound NOT metabolized
Bacterial Biotransformation [14]: Compound NOT metabolized
Bacterial Biotransformation [15]: Compound NOT metabolized
Bacterial Biotransformation [16]: Compound NOT metabolized
Bacterial Biotransformation [20]: Compound NOT metabolized
Bacterial Biotransformation [17]: Compound NOT metabolized
Bacterial Biotransformation [18]: Compound NOT metabolized
Bacterial Biotransformation [19]: Compound metabolized

CC(=O)Nc1ccc(OC(C)=O)cc1 [DIACETAMATE]
Bacterial Biotransformation [1]: Compound metabolized
Bacterial Biotransformation [2]: Compound metabolized
Bacterial Biotransformation [3]: Compound metabolized
Bacterial Biotransformation [4]: Compound metabolized
Bacterial Biotransformation [5]: Compound metabolized
Bacterial Biotransformation [6]: Compound metabolized
Bacterial Biotransformation [7]: Compound metabolized
Bacterial Biotransformation [8]: Compound metabolized
Bacterial Biotransformation [9]: Compound metabolized
Bacterial Biotransformation [10]: Compound metabolized
Bacterial Biotransformation [11]: Compound metabolized
Bacterial Biotransformation [12]: Compound metabolized
Bacterial Biotransformation [13]: Compound metabolized
Bacterial Biotransformation [14]: Compound metabolized
Bacterial Biotransformation [15]: Compound metabolized
Bacterial Biotransformation [16]: Compound metabolized
Bacterial Biotransformation [20]: Compound metabolized
Bacterial Biotransformation [17]: Compound metabolized
Bacterial Biotransformation [18]: Compound metabolized

COc1cc2nc(N3CCN(C(=O)C4COc5ccccc5O4)CC3)nc(N)c2cc1OC.CS(=O)(=O)O (configuration not stated) [DOXAZOSIN MESYLATE]
Bacterial Biotransformation [1]: Compound NOT metabolized
Bacterial Biotransformation [2]: Compound NOT metabolized
Bacterial Biotransformation [3]: Compound NOT metabolized
Bacterial Biotransformation [4]: Compound NOT metabolized
Bacterial Biotransformation [5]: Compound NOT metabolized
Bacterial Biotransformation [6]: Compound NOT metabolized
Bacterial Biotransformation [7]: Compound metabolized
Bacterial Biotransformation [8]: Compound metabolized
Bacterial Biotransformation [9]: Compound metabolized
Bacterial Biotransformation [10]: Compound NOT metabolized
Bacterial Biotransformation [11]: Compound NOT metabolized
Bacterial Biotransformation [12]: Compound metabolized
Bacterial Biotransformation [13]: Compound NOT metabolized
Bacterial Biotransformation [14]: Compound metabolized
Bacterial Biotransformation [15]: Compound metabolized
Bacterial Biotransformation [16]: Compound metabolized
Bacterial Biotransformation [20]: Compound NOT metabolized
Bacterial Biotransformation [17]: Compound NOT metabolized
Bacterial Biotransformation [18]: Compound NOT metabolized

COc1cc(NC(C)CCCN)c2ncccc2c1.O=P(O)(O)O.O=P(O)(O)O (configuration not stated) [PRIMAQUINE PHOSPHATE]
Bacterial Biotransformation [1]: Compound NOT metabolized
Bacterial Biotransformation [2]: Compound NOT metabolized
Bacterial Biotransformation [3]: Compound NOT metabolized
Bacterial Biotransformation [4]: Compound NOT metabolized
Bacterial Biotransformation [5]: Compound NOT metabolized
Bacterial Biotransformation [6]: Compound NOT metabolized
Bacterial Biotransformation [7]: Compound NOT metabolized
Bacterial Biotransformation [8]: Compound NOT metabolized
Bacterial Biotransformation [9]: Compound metabolized
Bacterial Biotransformation [10]: Compound NOT metabolized
Bacterial Biotransformation [11]: Compound metabolized
Bacterial Biotransformation [13]: Compound NOT metabolized
Bacterial Biotransformation [14]: Compound NOT metabolized
Bacterial Biotransformation [15]: Compound NOT metabolized
Bacterial Biotransformation [16]: Compound NOT metabolized
Bacterial Biotransformation [20]: Compound metabolized
Bacterial Biotransformation [17]: Compound NOT metabolized
Bacterial Biotransformation [18]: Compound NOT metabolized
Bacterial Biotransformation [19]: Compound NOT metabolized

COc1cc(C(=O)NCc2ccc(OCCN(C)C)cc2)cc(OC)c1OC [TRIMETHOBENZAMIDE]
Bacterial Biotransformation [1]: Compound NOT metabolized
Bacterial Biotransformation [2]: Compound NOT metabolized
Bacterial Biotransformation [3]: Compound NOT metabolized
Bacterial Biotransformation [4]: Compound NOT metabolized
Bacterial Biotransformation [5]: Compound NOT metabolized
Bacterial Biotransformation [6]: Compound NOT metabolized
Bacterial Biotransformation [7]: Compound NOT metabolized
Bacterial Biotransformation [8]: Compound NOT metabolized
Bacterial Biotransformation [9]: Compound NOT metabolized
Bacterial Biotransformation [10]: Compound NOT metabolized
Bacterial Biotransformation [11]: Compound NOT metabolized
Bacterial Biotransformation [12]: Compound NOT metabolized
Bacterial Biotransformation [13]: Compound NOT metabolized
Bacterial Biotransformation [14]: Compound NOT metabolized
Bacterial Biotransformation [15]: Compound NOT metabolized
Bacterial Biotransformation [16]: Compound NOT metabolized
Bacterial Biotransformation [20]: Compound NOT metabolized
Bacterial Biotransformation [17]: Compound NOT metabolized
Bacterial Biotransformation [18]: Compound NOT metabolized
